{"source": "patent US9193954B2", "about": "“Methods and compositions for mesenchymal stem cell proliferation” (priority 2011, dated 2015)", "key": {"active nuclear β-catenin": {"tested_on": "active nuclear β-catenin", "experiment": "TOPFlash/FOPFlash reporter assay for active nuclear β-catenin in C3H10T1/2", "assay_type": "cell-based, mouse", "settings": "for increase in normalized TOPFlash signal compared to untreated controls: after 24 hr treatment, C3H10T1/2", "from_the_text": "FIG. 3 Schematic representation of 3 hr C3H10T1/2 transfection with TOP/FOPFlash DNA plasmid followed by 24 hr exposure to BIO-containing media and subsequent analysis for active nuclear β-catenin over 5 days (A). Active nuclear β-catenin concentrations (TOPFlash) show a BIO-mediated dose-dependent increase immediately after BIO treatment as compared to control plasmid (FOPFlash) (B). Increased active nuclearβ-catenin concentrations persists for 3 days after BIO-treatment before returning to basal levels (C).\nThe β-catenin TOPFlash reporter plasmid and the FOPFlash mutant control (Addgene Plasmid #12456, and Addgene Plasmid #12457 were obtained in the form of DH5alpha bacterial stabs. Bacteria were streaked onto ampicillin-containing agar plates and grown overnight at 37° C. A single colony was selected, grown in 50 ml Luria-Bertani (LB) broth with 100 μg/ml ampicillin (Gibco) to select for ampicillin resistant colonies, and cultured at 37° C. under constant agitation for 24 hrs. Bacteria were centrifuged to form a pellet and plasmid DNA was purified using a Plasmid Midi Kit (Qiagen). Plasmid DNA was digested using EcoRI and PvuI restriction endonucleases (New England Biolabs) and fragments were separated on a 0.8% agarose gel. Molecular weights were verified using a standard DNA ladder (HyperLadder I, BioLine).\nC3H10T1/2 mouse embryonic fibroblasts were seeded in multiple 48-well plates and treated with BIO containing growth media for 24 hrs to analyze the effects of β-catenin activity over time. […]\nLuciferase activity was measured prior to BIO treatment (day 0), as well as on days 1, 2, 3, 4, and 5 after the 24 hr BIO treatment period. […] To each 96-well 25 μl of Luciferase Assay Reagent (Promega, Madison, Wis.) was added and total luminescence was measure immediately using a BioTek Synergy Mx plate-reader. Total luminescence was normalized to cellular DNA concentration using a Quant-iT PicoGreen dsDNA Assay Kit (Invitrogen) to account for well-to-well variability in cell density."}, "hMSCs [1]": {"tested_on": "hMSCs", "experiment": "Two-dimensional hMSC proliferation by manual cell counts (trypan blue, hemocytometer)", "assay_type": "cell-based, human", "settings": "for increase in cell population compared to untreated controls: day 41, 24 hr treatment", "method": "(§1) FIG. 4 Schematic representation of 41 day hMSC monolayer culture after 24 hr exposure to BIO-containing media (A). Cells were trypsinized and manually counted on days 0, 1, 3, 6, 19, 27, 34, 37, and 41 and shown to undergo a dose-dependent, BIO-mediated increase in proliferation (B).\nhMSCs or C3H10T1/2s were seeded at a density of 5,000 cell/cm^2 in 24-well tissue culture plates (Greiner Bio-One, Monroe, N.C.) and allowed to become adherent over a period of 24 hrs prior to treatment. BIO was solubilized in dimethyl sulfoxide (DMSO) to prepare 200 and 500 μM stock solutions. 10 μL of BIO in DMSO was added to 1 mL of culture media so that the final concentrations of 0, 2, and 5 μM were achieved. The cells were cultured with BIO-containing media for 24 hrs after which media was replaced by media without BIO, as illustrated in FIGS. 4a and 7a (two-dimensional treatment and three-dimensional treatment respectively).\nDuring culture, hMSC viability was periodically assessed using an alamarBlue metabolic assay (AbD Serotec, UK). Culture media was replaced with a 10% alamarBlue-media solution and allowed to incubate at 37° C. for 2 hr. After incubation, alamarBlue solution was transferred to black 96-well plates and media was refreshed. Fluorescence intensity was measured using a Tecan Infinite 200 PRO plate-reader (excitation/emission: 570/600 nm). To assess hMSC proliferation, cells were trypsinized and counted using trypan blue exclusion and a hemocytometer. Average cell counts were normalized to data collected on day 0 to illustrate the effect of BIO on hMSC proliferation over time."}, "hMSCs [2]": {"tested_on": "hMSCs", "experiment": "hMSC cell layer thickness by confocal microscopy", "assay_type": "cell-based, human", "settings": "for cell layer thickness: day 40", "method": "(§2) hMSC cell layer thickness was measured using the z-directional controls of a FV1000 Olympus Laser Scanning Confocal Microscope. On days 1, 14, and 40 cells, seeded on optically clear glass bottom 24-well culture plates (MatTek, Ashland, Mass.) were stained using a fluorescent LIVE/DEAD Viability/Cytotoxicity kit (Invitrogen). The focal plane of the microscope was adjusted to the cell-plate interface and set to zero. Using the z-directional controls the focal plane was raised until the live fluorescently stained cells were no longer visible at which point the cell layer thickness was recorded."}, "PEG-encapsulated hMSCs": {"tested_on": "PEG-encapsulated hMSCs", "experiment": "LIVE/DEAD confocal imaging of PEG-encapsulated BIO-treated hMSC cultures", "assay_type": "cell-based, human", "settings": "no detectable dead cells", "from_the_text": "FIG. 7 Schematic representation of 18 day PEG-encapsulated hMSC culture after 24 hr exposure to BIO-containing media (A). Cell DNA concentration was quantified on days 0, 1, 5, 12, and 18 and shown to undergo a dose-dependent, BIO-mediated increase in proliferation (B), as previously shown in two-dimensional cultures. Representative LIVE/DEAD confocal images of PEG-encapsulated BIO-treated hMSC cultures (C).\nEncapsulated hMSC viability, BIO treatment, and assessment of gene expression was performed as described in Section 2.3 with exception of cell lysate collection. For assessment of gene expression hMSC-PEG constructs were homogenized in lysis buffer and centrifuged to pellet polymerized PEG. The supernatant was then collected for analysis."}, "hMSCs [3]": {"tested_on": "hMSCs", "experiment": "LIVE/DEAD confocal imaging of two-dimensional BIO-treated hMSC cultures", "assay_type": "cell-based, human", "settings": "no detectable dead cells", "method": "as §1, §2"}}, "data": [{"molecule": "O=C1Nc2cc(Br)ccc2/C1=C1/Nc2ccccc2/C1=N\\O", "note": "[BIO, 6-bromoindirubin-3′-oxime]", "values": [{"measurement": "increase in normalized TOPFlash signal compared to untreated controls", "setting": "active nuclear β-catenin; 2 μM BIO", "value": 71, "unit": "fold"}, {"measurement": "increase in normalized TOPFlash signal compared to untreated controls", "setting": "active nuclear β-catenin; 5 μM BIO", "value": 106, "unit": "fold"}, {"measurement": "persistence of elevated TOPFlash signaling after BIO was removed, before returning to basal levels", "setting": "active nuclear β-catenin; C3H10T1/2, after 24 hr BIO treatment", "value": "three"}, {"measurement": "2D proliferation relative to untreated control", "setting": "hMSCs [1]; 2 uM BIO", "value": 155, "unit": "%"}, {"measurement": "increase in cell population compared to untreated controls", "setting": "hMSCs [1]; 2 μM BIO", "value": 4.5, "unit": "fold"}, {"measurement": "2D proliferation relative to untreated control", "setting": "hMSCs [1]; 5 uM BIO", "value": 172, "unit": "%"}, {"measurement": "increase in cell population compared to untreated controls", "setting": "hMSCs [1]; 5 μM BIO", "value": 5.5, "unit": "fold"}, {"measurement": "hMSC population increase", "setting": "hMSCs [1]; BIO-treated hMSCs, concentration and day not stated", "value": "~4", "unit": "fold"}, {"measurement": "cell layer thickness", "setting": "hMSCs [2]; 2 μM BIO", "value": 23.5, "unit": "μm"}, {"measurement": "cell layer thickness", "setting": "hMSCs [2]; 5 μM BIO", "value": 24.0, "unit": "μm"}, {"measurement": "cell layer thickness versus untreated control", "setting": "hMSCs [2]; day 0 and 14", "value": "no statistically significant differences"}, {"measurement": "live cells (LIVE/DEAD imaging)", "setting": "PEG-encapsulated hMSCs", "value": "~100", "unit": "%"}, {"measurement": "live cells (LIVE/DEAD imaging)", "setting": "hMSCs [3]", "value": "~100", "unit": "%"}]}]}
